Laboratory results as given in US4401660A, “Ester derivatives of 5-O-mycaminosyl tylonolide and method of using same” (Eli Lilly and Company, priority 1981, dated 1983).

Legend:
[1] = tested on: Streptococcus sp. 80; experiment: MIC, broth-dilution microtiter test (Table III); type: cell-based; design: unit not given here
Description: (§1) The MIC's in Table II were determined by standard agar-dilution assays. The MIC's in Table III were obtained using a conventional broth-dilution microtiter test.

[2] = tested on: Pasteurella multocida 17E; experiment: MIC, broth-dilution microtiter test (Table III); type: cell-based; design: unit not given here; conditions: bovine isolate
Description: as §1

[3] = tested on: Mycoplasma gallisepticum; experiment: MIC, broth-dilution microtiter test (Table III); type: cell-based; design: unit not given here
Description: as §1

[4] = tested on: Staphylococcus aureus; experiment: MIC, broth-dilution microtiter test (Table III); type: cell-based; design: unit not given here
Description: as §1

[5] = tested on: Mycoplasma hyorhinis; experiment: MIC, broth-dilution microtiter test (Table III); type: cell-based; design: unit not given here
Description: as §1

[6] = tested on: Mycoplasma synoviae; experiment: MIC, broth-dilution microtiter test (Table III); type: cell-based; design: unit not given here
Description: as §1

[7] = tested on: Pasteurella multocida 60A; experiment: MIC, broth-dilution microtiter test (Table III); type: cell-based; design: unit not given here; conditions: avian isolate
Description: as §1

[8] = tested on: Pasteurella multocida; experiment: Treatment of Pasteurella infections in chicks (Table V); type: in vivo, one-day-old chicks; conditions: Pasteurella multocida, sc, 4 h; 30 mg/kg by subcutaneous injection one and four hours post challenge; read-out: Deaths in Treated Chicks/Number Treated (converted)
Description: Certain OMT ester derivatives are active in vivo against Pasteurella infections. Table V summarizes the results of tests in which the ester derivatives were administered to one-day-old chicks at a dosage level of 30 mg/kg by subcutaneous injection one and four hours post challenge of the chicks with Pasteurella multocida (0.1 ml of a 10^-3 dilution of a 20-hour tryptose broth culture of avian P. multocida given subcutaneously). All nonmedicated infected chicks (ten in each control group) died within 24 hours of Pasteurella challenge.

[9] = tested on: Staphylococcus aureus X400; experiment: MIC, standard agar-dilution assay (Table II); type: cell-based; design: unit not given here; conditions: Staphylococcus aureus X400, methicillin-resistant strain
Description: as §1

[10] = tested on: Staphylococcus aureus X1.1; experiment: MIC, standard agar-dilution assay (Table II); type: cell-based; design: unit not given here
Description: as §1

[11] = tested on: Streptococcus Group D X66; experiment: MIC, standard agar-dilution assay (Table II); type: cell-based; design: unit not given here
Description: as §1

[12] = tested on: Haemophilus influenzae Holt; experiment: MIC, standard agar-dilution assay (Table II); type: cell-based; design: unit not given here; conditions: ampicillin-sensitive strain
Description: as §1

[13] = tested on: Streptococcus pneumoniae Park I; experiment: MIC, standard agar-dilution assay (Table II); type: cell-based; design: unit not given here
Description: as §1

[14] = tested on: Staphylococcus aureus S13E; experiment: MIC, standard agar-dilution assay (Table II); type: cell-based; design: unit not given here
Description: as §1

[15] = tested on: Staphylococcus aureus V41; experiment: MIC, standard agar-dilution assay (Table II); type: cell-based; design: unit not given here; conditions: Staphylococcus aureus V41, penicillin-resistant strain
Description: as §1

[16] = tested on: Staphylococcus epidermidis EPI2; experiment: MIC, standard agar-dilution assay (Table II); type: cell-based; design: unit not given here
Description: as §1

[17] = tested on: Streptococcus pyogenes C203; experiment: MIC, standard agar-dilution assay (Table II); type: cell-based; design: unit not given here
Description: as §1

[18] = tested on: Haemophilus influenzae R252; experiment: MIC, standard agar-dilution assay (Table II); type: cell-based; design: unit not given here; conditions: Haemophilus influenzae R252, ampicillin-resistant strain
Description: as §1

[19] = tested on: Streptococcus Group D 9960; experiment: MIC, standard agar-dilution assay (Table II); type: cell-based; design: unit not given here
Description: as §1

[20] = tested on: Staphylococcus epidermidis EPI1; experiment: MIC, standard agar-dilution assay (Table II); type: cell-based; design: unit not given here
Description: as §1

[21] = tested on: Pasteurella haemolytica 41D; experiment: MIC, broth-dilution microtiter test (Table III); type: cell-based; design: unit not given here
Description: as §1

[22] = tested on: Pasteurella haemolytica 22C; experiment: MIC, broth-dilution microtiter test (Table III); type: cell-based; design: unit not given here
Description: as §1

[23] = tested on: Pasteurella haemolytica 23C; experiment: MIC, broth-dilution microtiter test (Table III); type: cell-based; design: unit not given here
Description: as §1

[24] = tested on: Pasteurella multocida 22A; experiment: MIC, broth-dilution microtiter test (Table III); type: cell-based; design: unit not given here
Description: as §1

[25] = tested on: Pasteurella multocida 68C; experiment: MIC, broth-dilution microtiter test (Table III); type: cell-based; design: unit not given here
Description: as §1

| Structure (SMILES) | minimal inhibitory concentration (MIC) [1] | minimal inhibitory concentration (MIC) [2] | minimal inhibitory concentration (MIC) [3] | minimal inhibitory concentration (MIC) [4] | minimal inhibitory concentration (MIC) [5] | minimal inhibitory concentration (MIC) [6] | minimal inhibitory concentration (MIC) [7] | mortality at 30 mg/kg [8] [%] | minimal inhibitory concentration (MIC) [9] | minimal inhibitory concentration (MIC) [10] | minimal inhibitory concentration (MIC) [11] | minimal inhibitory concentration (MIC) [12] | minimal inhibitory concentration (MIC) [13] | minimal inhibitory concentration (MIC) [14] | minimal inhibitory concentration (MIC) [15] | minimal inhibitory concentration (MIC) [16] | minimal inhibitory concentration (MIC) [17] | minimal inhibitory concentration (MIC) [18] | minimal inhibitory concentration (MIC) [19] | minimal inhibitory concentration (MIC) [20] | further results |
| --- | --- | --- | --- | --- | --- | --- | --- | --- | --- | --- | --- | --- | --- | --- | --- | --- | --- | --- | --- | --- | --- |
| CCCCC(=O)OCC1C=C(C)C=CC(=O)C(C)CC(CC=O)C(OC2OC(C)C(OC(C)=O)C(N(C)C)C2OC(C)=O)C(C)C(O)CC(=O)OC1CC (stereo not drawn) [Compound 19] | < 0.05 | 1.56 | < 0.05 | 0.39 | 6.25 | < 0.05 | 3.12 | 100 | 0.5 | 0.25 | 0.5 | 2 | 0.03 | 0.25 | 0.25 | 0.125 | 0.25 | 2 | 0.5 | 0.125 |  |
| CCC1OC(=O)CC(O)C(C)C(OC2OC(C)C(OC(C)=O)C(N(C)C)C2OC(C)=O)C(CC=O)CC(C)C(=O)C=CC(C)=CC1COC(=O)C(C)C (stereo not drawn) [Compound 17] | < 0.05 | 1.56 | < 0.05 | 0.195 | 0.39 | < 0.05 | 3.12 | 100 | 1 | 1 | 1 | 4 | 0.25 | 1 | 1 | 1 | 1 | 4 | 1 | 0.5 |  |
| CCCCCCCC(=O)OCC1C=C(C)C=CC(=O)C(C)CC(CC=O)C(OC2OC(C)C(O)C(N(C)C)C2O)C(C)C(O)CC(=O)OC1CC (stereo not drawn) [Compound 24] | 0.39 | 6.25 | < 0.05 | 0.78 | 6.25 | 0.097 | 6.25 | 10 | 0.5 | 0.25 | 0.5 | 4 | 0.125 | 0.25 | 0.5 | 0.25 | 0.5 | 4 | 0.5 | 0.25 |  |
| CCC1OC(=O)CC(O)C(C)C(OC2OC(C)C(O)C(N(C)C)C2O)C(CC=O)CC(C)C(=O)C=CC(C)=CC1COC(=O)C(C)C (stereo not drawn) [Compound 18] | 0.195 | 1.56 | < 0.05 | 0.78 | 0.39 | < 0.05 | 3.12 | 0 | 0.5 | 0.25 | 0.5 | 2 | 0.25 | 0.25 | 0.5 | 0.5 | 0.5 | 4 | 0.5 | 0.25 |  |
| CCCC(=O)OCC1C=C(C)C=CC(=O)C(C)CC(CC=O)C(OC2OC(C)C(OC(C)=O)C(N(C)C)C2OC(C)=O)C(C)C(O)CC(=O)OC1CC (stereo not drawn) [Compound 15] | 0.097 | 1.56 | < 0.05 | 0.39 | 0.78 | < 0.05 | 1.56 | 100 | 0.5 | 0.25 | 0.5 | 2 | 0.25 | 0.25 | 0.5 | 0.5 | 0.25 | 2 | 0.5 | 0.25 |  |
| CCCC(=O)OCC1C=C(C)C=CC(=O)C(C)CC(CC=O)C(OC2OC(C)C(O)C(N(C)C)C2O)C(C)C(O)CC(=O)OC1CC (stereo not drawn) [Compound 16] | 0.195 | 1.56 | < 0.05 | 0.39 | 0.78 | 0.097 | 3.12 | 60 | 0.5 | 0.25 | 0.25 | 2 | 0.06 | 0.25 | 0.25 | 0.25 | 0.25 | 2 | 0.25 | 0.25 |  |
| CCC1OC(=O)CC(O)C(C)C(OC2OC(C)C(OC(C)=O)C(N(C)C)C2OC(C)=O)C(CC=O)CC(C)C(=O)C=CC(C)=CC1COS(C)(=O)=O (stereo not drawn) [Compound 45] | 0.195 | 3.12 | 0.39 | 0.78 | 3.12 | 0.39 | 1.56 | 100 | 2 | 1 | 1 |  |  | 1 | 2 | 2 |  |  | 1 | 0.5 | minimal inhibitory concentration (MIC) [21]: 6.25; minimal inhibitory concentration (MIC) [22]: 6.25; minimal inhibitory concentration (MIC) [23]: 3.12; minimal inhibitory concentration (MIC) [24]: 3.12; minimal inhibitory concentration (MIC) [25]: 1.56 |
| CCCCCCCC(=O)OCC1C=C(C)C=CC(=O)C(C)CC(CC=O)C(OC2OC(C)C(O)C(N(C)C)C2OC(C)=O)C(C)C(O)CC(=O)OC1CC (stereo not drawn) [Compound 25] | 0.195 | 6.25 | < 0.05 | 0.097 | 0.78 | 1.56 | 6.25 | 100 | 0.5 | 0.25 | 1 |  |  | 0.25 | 0.25 | 0.5 |  |  | 0.5 | 0.25 | minimal inhibitory concentration (MIC) [21]: 12.5; minimal inhibitory concentration (MIC) [22]: 12.5; minimal inhibitory concentration (MIC) [23]: 12.5; minimal inhibitory concentration (MIC) [24]: 25; minimal inhibitory concentration (MIC) [25]: 6.25 |
